The nature of this assay: The opioid antagonist potency against PL-107 mu-opioid receptor from guinea pig ileum(GPI).Ke (nM) = [antagonist]/(IC50 ratio-1).

As to `Oc1ccc2c3c1O[C@H]1c4ncc(-c5ccccc5)cc4C[C@@]4(O)[C@@H](C2)N(CC2CC2)CC[C@]314`, the Ki (commonly the equilibrium dissociation constant of an inhibitor or competing ligand from its target) turned out to be 0.042 µM.

These data come from BindingDB's records for doi:10.1021/jm990039i (Southern Research Institute, 1999).
